EC50 data for seven compounds are collected here from BindingDB's records for doi:10.7270/Q2GF0RZ3 (Burnham Center For Chemical Genomics, 2010).

The target of this assay is G-protein coupled receptor 55 (Homo sapiens, UniProt Q9Y2T6). Briefly: selective activators of receptor GPR55 – imaging, U2OS cells, beta-arrestin-GFP redistribution, primary screen (AID 1961).
Sequence of G-protein coupled receptor 55 (Q9Y2T6 whole entry): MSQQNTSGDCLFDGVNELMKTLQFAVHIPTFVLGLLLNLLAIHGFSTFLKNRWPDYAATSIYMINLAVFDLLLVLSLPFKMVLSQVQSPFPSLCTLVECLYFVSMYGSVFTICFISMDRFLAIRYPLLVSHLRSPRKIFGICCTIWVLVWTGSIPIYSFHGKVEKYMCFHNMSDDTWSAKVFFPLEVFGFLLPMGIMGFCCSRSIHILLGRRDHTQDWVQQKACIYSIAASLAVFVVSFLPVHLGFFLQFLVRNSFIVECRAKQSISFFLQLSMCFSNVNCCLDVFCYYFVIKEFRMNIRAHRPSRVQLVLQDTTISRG

On to `COc1ccc(C2c3sc4nc(C)cc(C)c4c3OC(=N)C2C#N)cc1` (configuration not stated) [2-amino-4-(4-methoxyphenyl)-7,9-dimethyl-4H-pyrano[2',3':4,5]thieno[2,3-b]pyridine-3-carbonitrile], for which the EC50 is 3.41 µM. Next, `C=c1[nH]n(-c2ccc(C(=O)O)cc2)c(=O)c1=Cc1ccc(-c2ccccc2F)o1` [4-((4E)-4-{[5-(2-fluorophenyl)-2-furyl]methylene}-3-methyl-5-oxo-4,5-dihydro-1H-pyrazol-1-yl)benzoic acid]: 21.3 µM. In the case of `COC1=CC(=Cc2c(-c3ccccc3)[nH]oc2=O)C=C(Cl)C1=O` [4-[(Z)-(3-chloro-5-methoxy-4-oxo-1-cyclohexa-2,5-dienylidene)methyl]-3-phenyl-2H-isoxazol-5-one] it was 32 µM; in that of `Cc1ccc(NS(=O)(=O)c2cc([N+](=O)[O-])ccc2N=NCc2sc(N3CCOCC3)nc2-c2ccccc2)c(C)c1` [MLS000408840], 0.5 µM.

Take `CC(C)CN1C(=O)/C(=N\NC(=O)c2cccc(S(=O)(=O)N3CCCCC3)c2)c2ccccc21` [MLS000417389]: the EC50 stood at 4.75 µM. In turn, `N#CC1C(=O)NC(c2ccc(-c3cc(Cl)ccc3Cl)o2)N(c2ccccc2)C1=S` (configuration not stated) [MLS000592167] registered an EC50 of 32 µM. This EC50 lies about 6.7-fold higher than the previous one. As to `N#CC1C(=N)OC2=C(CC/C2=C\c2ccccc2)C1c1ccccc1` (configuration not stated) [SMR000176483], the EC50 came out at 32 µM.

One may read the EC50 as the concentration giving half of the maximal effect. High values mean lower potency in that assay, low ones higher potency in that assay.
